Data from patent US9221823B2, “Crystal form of pyrrolidylthiocarbapenem derivative” (Shionogi & Co., Ltd., priority 2000, dated 2015).

Legend:
Format in all cases: physicochemical
[1] = Moisture measurement after storage (Karl Fischer water determination); conditions: for Moisture absorption (in words): storage at 40° C. and 75% RH up to 1 month
Protocol: Storage conditions were 40° C. and 75% RH. The periods of time for storage were 1 week, 2 weeks and 1 month. During these storage periods, samples were stored in opened petri dishes. After storage in this manner, the moisture and potency of each sample were measured. The moisture was measured according to REQUIREMENT FOR ANTIBIOTIC PRODUCTS OF JAPAN General Tests MOISTURE DETERMINATION II Water determination. Note that Karl Fischer formamide methanol mixture II was used as the solvent.

[2] = Potency test by liquid chromatography after storage; conditions: for Change of potency over storage time (in words): storage at 40° C. and 75% RH up to 1 month
Protocol: Storage conditions were 40° C. and 75% RH. The periods of time for storage were 1 week, 2 weeks and 1 month. During these storage periods, samples were stored in opened petri dishes.
After storage in this manner, the moisture and potency of each sample were measured.
A potency test was conducted by the following method. About 0.025 g of each of the type IV crystal obtained in Example 4 and type II crystal and a standard product of S-4661 was precisely measured. Each sample was dissolved in water to precisely 100 mL. 10 mL of each solution was precisely measured, to which 5 ml of internal standard solution was added. As the internal standard solution, aqueous acetaminophen solution (concentration 1/20000:1 g of acetaminophen in 20000 ml of the solution) was used. Thereafter, water was added to each solution to 50 mL. Solutions prepared from the type IV or II crystals were used as sample solutions. A solution prepared from a standard product of S-4661 was used as a standard solution. 10 μL of each of the sample solutions and the standard solution were subjected to liquid chromatography under the following conditions. For the sample solution, the ratio QT of the peak area of S-4661 to the peak area of the internal standard substance was obtained. For the standard solution, the ratio QS of the peak area of S-4661 to the peak area of the internal standard substance was obtained.
Conditions for Operation • Detector: ultraviolet absorptiometer (measurement wavelength: 240 nm) • Column: a stainless steel tube having an inner diameter of about 4.6 mm and a length of about 15 cm was filled with 5 μm of octadecylsilylated silica gel for liquid chromatography (L-column ODS). • Column temperature: a constant temperature of around 25° C. • Mobile phase: 2 mmol/L phosphate buffer pH 5.8/acetonitrile mixture (191:9) • Flow rate: Flow rate was adjusted so that the retention time of S-4661 was about 8 to 9 minutes (about 1 mL/min). • Selection of column: 10 μL of standard solution was used and the operation was conducted under the above-described conditions. A column, which elutes S-4661 and the internal standard substance in this order and has a resolution between S-4661 and the internal standard substance of at least 3, was used.
Potencies were calculated by the following expression.

[3] = Assessment of storage stability of crystals; conditions: for Storage stability (in words): compared to conventional type I or II crystals
Protocol: The storage stability of the thus-obtained crystal of the present invention was assessed.
Hereinafter, a result of evaluation of comparing the stability of the crystals of the present invention with that of a conventional crystal (type II crystal) is specifically shown.
The stability of type II crystal of S4661 (conventional crystal) was compared with that of the type IV crystal obtained in the above-described Example 4.

[4] = 1 month storage at 40° C. and 75% RH, opened petri dish
[5] = 1 week storage at 40° C. and 75% RH, opened petri dish
[6] = 2 weeks storage at 40° C. and 75% RH, opened petri dish

Moisture [1, 4]	Moisture [1, 5]	Moisture [1, 6]	Moisture ([1]; Initial time, before storage)	Moisture level at which moisture became constant ([1]; after about two weeks at 40° C. and 75% RH)	Moisture absorption (in words) ([1]; listed as type II crystal)	Potency [2, 4]	Potency [2, 5]	Potency [2, 6]	Potency ([2]; Initial time, before storage)	Change of potency over storage time (in words) ([2]; listed as type II crystal)	Moisture absorption (in words) ([1]; listed as type IV crystal)	Change of potency over storage time (in words) ([2]; listed as type IV crystal)	Storage stability (in words) ([3]; listed as type IV crystal)	Stability relative to type II crystal (other test results, in words) ([3]; other test results)	SMILES	Storage stability (in words) ([3]; listed as type III crystal)
10.31%	9.51%	10.36%	4.56%	about 10%	absorbs moisture	826.4 µg/mg	956.2 µg/mg	923.0 µg/mg	983.2 µg/mg	decreased over time					C[C@@H](O)[C@H]1C(=O)N2C(C(=O)O)=C(S[C@@H]3CN[C@H](CNS(N)(=O)=O)C3)[C@H](C)[C@H]12 [Type II, (+)-(4R,5S,6S)-6-[(1R)-1-hydroxyethyl]-4-methyl-7-oxo-3[[(3S,5S)-5-(sulfamoylaminomethyl)pyrrolidin-3-yl]thio]-1-azabicyclo[3.2.0]hept-2-ene-2-carboxylic acid]	
															C[C@@H](O)[C@H]1C(=O)N2C(C(=O)O)=C(S[C@@H]3CN[C@H](CNS(N)(=O)=O)C3)[C@H](C)[C@H]12 [Type III, (+)-(4R,5S,6S)-6-[(1R)-1-hydroxyethyl]-4-methyl-7-oxo-3[[(3S,5S)-5-(sulfamoylaminomethyl)pyrrolidin-3-yl]thio]-1-azabicyclo[3.2.0]hept-2-ene-2-carboxylic acid]	excellent storage stability as compared to conventional type I or II crystals
4.99%	4.79%	4.89%	4.62%			981.5 µg/mg	990.8 µg/mg	992.4 µg/mg	993.3 µg/mg		absorbs substantially no moisture	no significant change	more excellent storage stability	more stable than the type II crystal	C[C@@H](O)[C@H]1C(=O)N2C(C(=O)O)=C(S[C@@H]3CN[C@H](CNS(N)(=O)=O)C3)[C@H](C)[C@H]12 [Type IV, (+)-(4R,5S,6S)-6-[(1R)-1-hydroxyethyl]-4-methyl-7-oxo-3[[(3S,5S)-5-(sulfamoylaminomethyl)pyrrolidin-3-yl]thio]-1-azabicyclo[3.2.0]hept-2-ene-2-carboxylic acid]	
